According to ChEMBL document CHEMBL1909538, “Iodine-catalyzed conjugate addition of indoles onto en-1,4-dione: a novel synthesis of 3-(1-(1H-indol-3-yl)-2-oxo-2-phenylethyl)indolin-2-ones as antibacterial and antifungal agents” (2011):
≈ marks a conversion by molar mass, not a printed value.

What was measured:
[1] = system: Escherichia coli; experiment: Antimicrobial activity against Escherichia coli MTCC 443 by broth dilution method; type: functional
[2] = system: Pseudomonas aeruginosa; experiment: Antimicrobial activity against Pseudomonas aeruginosa MTCC 741 by broth dilution method; type: functional
[3] = system: Klebsiella pneumoniae; experiment: Antimicrobial activity against Klebsiella pneumoniae MTCC 618 by broth dilution method; type: functional
[4] = system: Candida albicans; experiment: Antifungal activity against Candida albicans MTCC 227 at 100 ug after 48 hrs by agar well diffusion method; type: functional; details: MTCC 227, 48 h, read-out: DIZ
[5] = system: Diutina rugosa; experiment: Antifungal activity against Candida rugosa at 100 ug after 48 hrs by agar well diffusion method; type: functional; details: read-out: DIZ
[6] = system: Saccharomyces cerevisiae; experiment: Antifungal activity against Saccharomyces cerevisiae MTCC 36 at 100 ug after 48 hrs by agar well diffusion method; type: functional; details: MTCC 36, 48 h, read-out: DIZ
[7] = system: Candida albicans; experiment: Antifungal activity against Candida albicans MTCC 227 at 150 ug after 48 hrs by agar well diffusion method; type: functional; details: MTCC 227, 48 h, read-out: DIZ
[8] = system: Diutina rugosa; experiment: Antifungal activity against Candida rugosa at 150 ug after 48 hrs by agar well diffusion method; type: functional; details: read-out: DIZ
[9] = system: Saccharomyces cerevisiae; experiment: Antifungal activity against Saccharomyces cerevisiae MTCC 36 at 150 ug after 48 hrs by agar well diffusion method; type: functional; details: MTCC 36, 48 h, read-out: DIZ
[10] = system: Bacillus subtilis; experiment: Antimicrobial activity against Bacillus subtilis MTCC 441 by broth dilution method; type: functional
[11] = system: Staphylococcus aureus; experiment: Antimicrobial activity against Staphylococcus aureus MTCC 96 by broth dilution method; type: functional
[12] = system: Staphylococcus epidermidis; experiment: Antimicrobial activity against Staphylococcus epidermidis by broth dilution method; type: functional
[13] = system: Aspergillus flavus; experiment: Antifungal activity against Aspergillus flavus at 100 ug after 48 hrs by agar well diffusion method; details: read-out: DIZ
[14] = system: Aspergillus flavus; experiment: Antifungal activity against Aspergillus flavus at 150 ug after 48 hrs by agar well diffusion method; details: read-out: DIZ
[15] = system: Candida albicans; experiment: Antifungal activity against Candida albicans MTCC 227 at 50 ug after 48 hrs by agar well diffusion method; type: functional; details: MTCC 227, 48 h, read-out: DIZ
[16] = system: Diutina rugosa; experiment: Antifungal activity against Candida rugosa at 50 ug after 48 hrs by agar well diffusion method; type: functional; details: read-out: DIZ
[17] = system: Saccharomyces cerevisiae; experiment: Antifungal activity against Saccharomyces cerevisiae MTCC 36 at 50 ug after 48 hrs by agar well diffusion method; type: functional; details: MTCC 36, 48 h, read-out: DIZ
[18] = system: Aspergillus flavus; experiment: Antifungal activity against Aspergillus flavus at 50 ug after 48 hrs by agar well diffusion method; details: read-out: DIZ

SMILES | MIC [1] | MIC [2] | MIC [3] | zone of inhibition at 100 µg/disc [4] | zone of inhibition at 100 µg/disc [5] | zone of inhibition at 100 µg/disc [6] | zone of inhibition at 150 µg/disc [7] | zone of inhibition at 150 µg/disc [8] | zone of inhibition at 150 µg/disc [9] | MIC [10] | MIC [11] | MIC [12] | zone of inhibition at 100 µg/disc [13] | zone of inhibition at 150 µg/disc [14] | zone of inhibition at 50 µg/disc [15] | zone of inhibition at 50 µg/disc [16] | zone of inhibition at 50 µg/disc [17] | zone of inhibition at 50 µg/disc [18]
O=C1Nc2ccccc2C1C(C(=O)c1ccccc1)c1c(-c2ccccc2)[nH]c2ccccc12 (stereo unspecified) | 150 µg/mL (≈ 339 µM) | 9.38 µg/mL (≈ 21.2 µM) | 150 µg/mL (≈ 339 µM) | 0 mm | 12 mm | 0 mm | 0 mm | 17 mm | 0 mm | 150 µg/mL (≈ 339 µM) | 75 µg/mL (≈ 169 µM) | 75 µg/mL (≈ 169 µM) | 0 mm | 0 mm | – | – | – | –
O=C1Nc2ccccc2C1C(C(=O)c1ccccc1)c1c[nH]c2ccccc12 (stereo unspecified) | 150 µg/mL (≈ 409 µM) | 9.38 µg/mL (≈ 25.6 µM) | 150 µg/mL (≈ 409 µM) | 0 mm | 11 mm | 0 mm | 0 mm | 16 mm | 0 mm | 75 µg/mL (≈ 205 µM) | 75 µg/mL (≈ 205 µM) | 150 µg/mL (≈ 409 µM) | 0 mm | 0 mm | – | – | – | –
CN[C@@H]1[C@H](O[C@H]2[C@H](O[C@H]3[C@H](O)[C@@H](O)[C@H](N=C(N)N)[C@@H](O)[C@@H]3N=C(N)N)O[C@@H](C)[C@]2(O)C=O)O[C@@H](CO)[C@H](O)[C@H]1O [STREPTOMYCIN] | 6.25 µg/mL (≈ 10.7 µM) | 1.56 µg/mL (≈ 2.69 µM) | 3.12 µg/mL (≈ 5.37 µM) | – | – | – | – | – | – | 6.25 µg/mL (≈ 10.7 µM) | 6.25 µg/mL (≈ 10.7 µM) | 3.12 µg/mL (≈ 5.37 µM) | – | – | – | – | – | –
CC1(C)S[C@@H]2[C@H](NC(=O)Cc3ccccc3)C(=O)N2[C@H]1C(=O)O [PENICILLIN G] | 12.5 µg/mL (≈ 37.4 µM) | 12.5 µg/mL (≈ 37.4 µM) | 6.25 µg/mL (≈ 18.7 µM) | – | – | – | – | – | – | 1.56 µg/mL (≈ 4.67 µM) | 1.56 µg/mL (≈ 4.67 µM) | 3.12 µg/mL (≈ 9.35 µM) | – | – | – | – | – | –
O=C1Nc2ccccc2C1C(C(=O)c1ccccc1)c1c[nH]c2ccc(Br)cc12 (stereo unspecified) | 150 µg/mL (≈ 337 µM) | 18.8 µg/mL (≈ 42.1 µM) | 150 µg/mL (≈ 337 µM) | 0 mm | 0 mm | 0 mm | 0 mm | 15 mm | 0 mm | 150 µg/mL (≈ 337 µM) | 150 µg/mL (≈ 337 µM) | 150 µg/mL (≈ 337 µM) | 0 mm | 0 mm | – | – | – | –
COC(=O)c1ccc2[nH]cc(C(C(=O)c3ccccc3)C3C(=O)Nc4ccccc43)c2c1 (stereo unspecified) | 150 µg/mL (≈ 353 µM) | 18.8 µg/mL (≈ 44.2 µM) | 150 µg/mL (≈ 353 µM) | 0 mm | 10 mm | 0 mm | 0 mm | 15 mm | 0 mm | 150 µg/mL (≈ 353 µM) | 75 µg/mL (≈ 177 µM) | 150 µg/mL (≈ 353 µM) | 0 mm | 0 mm | – | – | – | –
C[C@@H]1[C@H](O)[C@@H](C)/C=C/C=C/C=C/C=C/C=C/C=C/C=C/[C@H](O[C@@H]2O[C@H](C)[C@@H](O)[C@H](N)[C@@H]2O)C[C@@H]2O[C@](O)(C[C@@H](O)C[C@@H](O)[C@H](O)CC[C@@H](O)C[C@@H](O)CC(=O)O[C@H]1C)C[C@H](O)[C@H]2C(=O)O [AMPHOTERICIN B] | – | – | – | – | – | – | – | – | – | – | – | – | – | – | 23.5 mm | 21 mm | 22 mm | 25 mm
O=C1Nc2ccccc2C1C(C(=O)c1ccccc1)c1c[nH]c2ccc([N+](=O)[O-])cc12 (stereo unspecified) | 150 µg/mL (≈ 365 µM) | 9.38 µg/mL (≈ 22.8 µM) | 150 µg/mL (≈ 365 µM) | 0 mm | 0 mm | 0 mm | 0 mm | 0 mm | 0 mm | 75 µg/mL (≈ 182 µM) | 150 µg/mL (≈ 365 µM) | 150 µg/mL (≈ 365 µM) | 0 mm | 0 mm | – | – | – | –
Cc1[nH]c2ccc([N+](=O)[O-])cc2c1C(C(=O)c1ccccc1)C1C(=O)Nc2ccccc21 (stereo unspecified) | 150 µg/mL (≈ 353 µM) | 150 µg/mL (≈ 353 µM) | 150 µg/mL (≈ 353 µM) | 0 mm | 0 mm | 0 mm | 0 mm | 0 mm | 0 mm | 150 µg/mL (≈ 353 µM) | 150 µg/mL (≈ 353 µM) | 150 µg/mL (≈ 353 µM) | 0 mm | 0 mm | – | – | – | –
O=C1Nc2ccccc2C1C(C(=O)c1ccccc1)c1c[nH]c2ccc(Cl)cc12 (stereo unspecified) | 150 µg/mL (≈ 374 µM) | 9.38 µg/mL (≈ 23.4 µM) | 150 µg/mL (≈ 374 µM) | 0 mm | 13 mm | 0 mm | 0 mm | 17 mm | 0 mm | 150 µg/mL (≈ 374 µM) | 18.8 µg/mL (≈ 46.8 µM) | 75 µg/mL (≈ 187 µM) | 0 mm | 0 mm | – | – | – | –
Cn1cc(C(C(=O)c2ccccc2)C2C(=O)Nc3ccccc32)c2ccccc21 (stereo unspecified) | 150 µg/mL (≈ 394 µM) | 18.8 µg/mL (≈ 49.3 µM) | 150 µg/mL (≈ 394 µM) | 0 mm | 10 mm | 0 mm | 0 mm | 16 mm | 0 mm | 150 µg/mL (≈ 394 µM) | 150 µg/mL (≈ 394 µM) | 150 µg/mL (≈ 394 µM) | 0 mm | 0 mm | – | – | – | –
Cc1[nH]c2ccccc2c1C(C(=O)c1ccccc1)C1C(=O)Nc2ccccc21 (stereo unspecified) | 150 µg/mL (≈ 394 µM) | 18.8 µg/mL (≈ 49.3 µM) | 150 µg/mL (≈ 394 µM) | 0 mm | 9 mm | 0 mm | 0 mm | 13 mm | 0 mm | 150 µg/mL (≈ 394 µM) | 37.5 µg/mL (≈ 98.6 µM) | 150 µg/mL (≈ 394 µM) | 0 mm | 0 mm | – | – | – | –
N#Cc1ccc2[nH]cc(C(C(=O)c3ccccc3)C3C(=O)Nc4ccccc43)c2c1 (stereo unspecified) | 150 µg/mL (≈ 383 µM) | 150 µg/mL (≈ 383 µM) | 150 µg/mL (≈ 383 µM) | 0 mm | 8 mm | 0 mm | 0 mm | 11 mm | 0 mm | 150 µg/mL (≈ 383 µM) | 150 µg/mL (≈ 383 µM) | 150 µg/mL (≈ 383 µM) | 0 mm | 0 mm | – | – | – | –
